Test results: PMC11612555, “Impact of camel milk lactoferrin peptides against breast cancer cells: in silico and in vitro study” (Frontiers in Pharmacology, 2024)
In brackets after ≈: the same amount, converted by molar mass. Read-outs that look alike come from different tables or passages of the source. Ends that are not written are not given here. Peptide text beside a SMILES is read from it.

Tests used:
HDFa cells = assay: MTT assay on HDFa normal cells, 48 h; assay type: cell-based, human; conditions: for IC50 Value: mean ± SD
Experimental: DMEM medium supplemented with 10% fetal bovine serum (FBS) and 1% penicillin-streptomycin (10,000 U/mL) (complete media) was prepared to culture MCF-7 and HDFa cells in T25 flasks at 37°C in a CO2 incubator. Once the cells had adhered and grown to 70%–90% confluence within 24–48 h, they were transferred to new flasks. 2 mL of 0.25% trypsin was added to detach the cells, which were then incubated for 5 min at 37°C. The trypsin activity was stopped by adding 2 mL of complete media. The detached cells were collected into a tube and centrifuged at 1,500 rpm for 5 min. After removing the supernatant, 3 mL of media was added to resuspend the cell pellet. 20 μL of suspended cells were mixed with 20 µL of 0.4% trypan blue for staining and cell counting. 100 μL of suspended cells in complete media, containing approximately 10^4 cells, were added to each well of a 96-well plate and incubated for 24 h to allow cell attachment. Peptides (PEP20, PEP24, PEP63, PEP66, PEP67, and PEP74) at various concentrations (200, 100, 50, 25, 12.5, 6.25 μg/mL) were then added to the media in each well. Each concentration was repeated three times. After a 48-h incubation period at 37°C, the peptide-treated medium was replaced with 100 µL of 0.5 mg/mL MTT and incubated for 4 h at 37°C in the dark. Following removal of the MTT and addition of 100 µL of DMSO, the absorbance of each well in the 96-well plate was measured at 595 nm using an ELISA reader (Bio-RAD microplate reader, Japan) ([Ali et al., 2018]; [Salim et al., 2022]).
The percentage viability was calculated by multiplying the absorbance of treated cells by 100 and dividing the absorbance of untreated cells. The viability of untreated cells is considered 100%. The each concentration of each peptide and cisplatin was repeated triplicate. The unite of cell viability and IC50 are percentage and μg/mL. The viability and IC50 of the treated cells are expressed as the mean ± standard deviation (SD). GraphPad Prism software (version 9.0, San Diego, CA, United States) was used to calculate the IC50 values of the peptides, […], and their combination.

MCF-7 cells = test system: MCF-7 cells; parameters: % of inhibition of MCF-7: dose or concentration left out as unconfirmed; conditions: for IC50 Range / IC50 Value: MCF-7, MTT; for IC50 Value: mean ± SD
Experimental: DMEM medium supplemented with 10% fetal bovine serum (FBS) and 1% penicillin-streptomycin (10,000 U/mL) (complete media) was prepared to culture MCF-7 and HDFa cells in T25 flasks at 37°C in a CO2 incubator. Once the cells had adhered and grown to 70%–90% confluence within 24–48 h, they were transferred to new flasks. 2 mL of 0.25% trypsin was added to detach the cells, which were then incubated for 5 min at 37°C. The trypsin activity was stopped by adding 2 mL of complete media. The detached cells were collected into a tube and centrifuged at 1,500 rpm for 5 min. After removing the supernatant, 3 mL of media was added to resuspend the cell pellet. 20 μL of suspended cells were mixed with 20 µL of 0.4% trypan blue for staining and cell counting. 100 μL of suspended cells in complete media, containing approximately 10^4 cells, were added to each well of a 96-well plate and incubated for 24 h to allow cell attachment. […] Each concentration was repeated three times. After a 48-h incubation period at 37°C, the peptide-treated medium was replaced with 100 µL of 0.5 mg/mL MTT and incubated for 4 h at 37°C in the dark. Following removal of the MTT and addition of 100 µL of DMSO, the absorbance of each well in the 96-well plate was measured at 595 nm using an ELISA reader (Bio-RAD microplate reader, Japan) ([Ali et al., 2018]; [Salim et al., 2022]).
The percentage viability was calculated by multiplying the absorbance of treated cells by 100 and dividing the absorbance of untreated cells. The viability of untreated cells is considered 100%. The each concentration of each peptide and cisplatin was repeated triplicate. The unite of cell viability and IC50 are percentage and μg/mL. The viability and IC50 of the treated cells are expressed as the mean ± standard deviation (SD). GraphPad Prism software (version 9.0, San Diego, CA, United States) was used to calculate the IC50 values of the peptides, mitotane, and their combination.

[1] = IC50 of HDFa related to IC50 of MCF-7

Molecule | IC50 Range (HDFa cells) | SI (selectivity index) (MCF-7 cells; [1]) | IC50 Range (MCF-7 cells; 48 h) | IC50 Value (MCF-7 cells; 48 h) | also measured
N.N.[Cl][Pt][Cl] [Cisplatin, reference compound] | 5.650 to 7.856 µg/mL | 1.565 | 3.581 to 5.055 µg/mL | 4.255 ± 0.738 µg/mL | IC50 Value (HDFa cells): 6.663 ± 1.10 µg/mL; IC50 Value (HDFa cells; listed as cisplatin): 6.66 µg/mL; IC50 Value (MCF-7 cells; 48 h, listed as cisplatin): 4.25 µg/mL
CSCC[C@H](NC(=O)[C@H](CC(C)C)NC(=O)[C@H](Cc1ccccc1)NC(=O)[C@H](C)NC(=O)[C@H](CS)NC(=O)[C@H](C)NC(=O)[C@H](CCC(=O)O)NC(=O)[C@H](CC(C)C)NC(=O)[C@H](CC(C)C)NC(=O)[C@@H]1CCCN1C(=O)[C@H](CO)NC(=O)[C@@H](NC(=O)[C@H](CO)NC(=O)[C@@H](N)CS)[C@@H](C)O)C(=O)N[C@@H](CCCNC(=N)N)C(=O)O [PEP66, CSTSPLLEACAFLMR] (H-CSTSPLLEACAFLMR-OH; N-terminus and C-terminus assumed) | 137.2 to 206.9 µg/mL | 3.19 | 46.73 to 59.71 µg/mL | 52.82 ± 6.49 µg/mL (≈ 32.2 µM) | % of inhibition of MCF-7 (MCF-7 cells; concentration (Figure 6)): 76.90%; percentage of MCF7 inhibition (MCF-7 cells; dose of 200 μg/mL): 77%
LFFPALLSLGALGLCLAASK [PEP67] | – | – | – | – | SI (selectivity index) (MCF-7 cells): 0.6
PWNHIKRYF [PEP24, PWNHIKRYF] | – | – | – | – | IC50 (MCF-7 cells; 48 h): > 200 µg/mL
